US8663653B2, “Efficient cell culture system for hepatitis C virus genotype 2B” (priority 2008, dated 2014)
“Also recorded” adds a separate entry of the source.

Tested on: JFH1-based recombinants of genotypes 1a, 1b, 2a, 2b, and 6a
Assay type: cell-based, hepatitis C virus

SMILES | effect on number of infected cells and supernatant HCV RNA titers
NC(=O)c1ncn([C@@H]2O[C@H](CO)[C@@H](O)[C@H]2O)n1 [ribavirin] | no apparent effect; also recorded: did not decrease the number of infected cells or supernatant HCV RNA titers
NC12CC3CC(CC(C3)C1)C2 [amantadine] | no apparent effect; also recorded: did not decrease the number of infected cells or supernatant HCV RNA titers
